# Where no end group is shown, it is not given here.
# System: DHD-K12 cells
# Conditions: rat, in vivo
# Excerpt: Autologous colon carcinoma DHD-K12 line cells were inoculated intra-splenically in BDIX rats. These cells metastatize at polmonar and hepatic level and naturally express the epitope common also to human colon rectal carcinoma ([…] (SEQ ID NO:4)). To evaluate the relevance of […] (SEQ ID NO:4) antigen in antigen specific cytotoxic response BDIX rats were immunized with DHD-K12.
# PBMC cytotoxic activity (cytotoxicity test based on the release of ^51Cr or LDH) of BDIX rats against DHD-K12 cells was evaluated after immunization and tumor inoculum.
sequence,measurement,value
RTQKEASIC,"PBMC cytotoxic activity after tumor inoculum, pre-immunized vs non immunized rats",significantly increased
same,PBMC cytotoxic activity against DHD-K12 after immunization,high cytotoxic activity
